Measurements as given in article PMC9235293 (European Journal of Medicinal Chemistry, 2022).

In the case of `CC(C)[C@H](NC(=O)OCc1ccccc1)C(=O)N[C@@H](Cc1cccs1)C(=O)N[C@H](C=O)C[C@@H]1CCNC1=O` [MPI15], the “Solubility in DMSO” value is reported as “insoluble”.
